Laboratory results from patent publication US11957671B2, “Benzodioxane modulators of leukotriene A4 hydrolase (LTA4H) for prevention and treatment of aging-associated diseases” (Alkahest, Inc., priority 2021, dated 2024).

What was measured:
[1] = tested on: aged wild type (WT; C57BL/6) mice; assay: Y-Maze; assay type: in vivo, mouse; conditions: 10 mg/kg PO daily
Protocol: A large Y-maze test assessed short-term memory of the familiarity of a specific context. Mice were brought to the experimental room for at least 30 min of acclimation to the experimental room conditions (dim lighting) prior to testing. For the initial training trial, the mouse was placed at the end of one arm of a large Y-maze designated “start arm” (arm length: 15 inches). The third arm of the maze was blocked off, allowing the mouse to explore two of the three arms freely (“start arm” and “familiar arm”) for 5 min. Each arm contained spatial cues. Three hours later, the mouse was placed back into the maze in the “start arm,” and allowed to explore all three arms with the third arm unblocked (“novel arm”). Movements in and out of each arm were tracked using automated tracking software (ANY-maze). Testing was performed under dim lighting, and the apparatus was cleaned with 70% ethanol between trials. The time spent and number of entireties into the “novel arm” and “familiar arm” were analyzed, as well as total distance travelled and velocity as measures of general locomotor activity.
(§1) Three independent cohorts of aged wild type (WT; C57BL/6) mice between twenty to twenty-two months of age (20-22 mo) were homogenized into two (2) groups by body weight, total distance travelled in the open field test, and average velocity in the open field test. Group 1 was administered vehicle control PO daily. Group 2 was administered 10 mg/kg of the LTA4H inhibitor Compound 1 PO daily. Both groups were dosed for either 10 days or 4 weeks daily. Behavioral assays were run during the last week of dosing and animals were sacrificed at the end of the study for histological and molecular assays.

[2] = tested on: aged wild type (WT; C57BL/6) mice; assay: Histology of astrocytes (GFAP, AQP4) in CA1 hippocampus; assay type: in vivo, mouse
Protocol: Brains were collected following saline perfusion and separated by mid-sagittal slice with one-half drop fixed in freshly prepared 4% PFA. PFA was changed to 30% sucrose 24-48 hours later. A second change to 30% sucrose occurred 24 hours later. Brain tissue was sectioned or lysed and analyzed for GFAP, AQP4, or IBA1 by standard histological methods. Images were acquired using a confocal microscope or Axioscan slide scanner.
as §1
FIGS. 22-30 report the results of the histology of astrocytes. GFAP is a pan astrocytic marker that was used to measure total number and size of astrocytes as a readout for astrocyte reactivity. AQP4 is a water channel expressed in astrocyte endfeet that line the blood-brain barrier. GFAP and AQP4 are increased with age and diseases with cognitive decline and BBB impairment (Kress B T et al., Ann Neurol, 76(6):845-61 (2014), Owasil R et al., Int J Mol Sci, 21(4) (2020), and Qi L et al., Life Sci, 88(1-2):50-56)). FIG. 22 reports GFAP percent area (Mann-Whitney test. (n=10, 10)), FIG. 23 reports the number of GFAP+ cells (Mann-Whitney test. (n=10, 10)), and FIG. 24 reports the average size of GFAP+ cells (Mann-Whitney test. (n=10, 10)) in the CA1 region of the hippocampus following 10 days of dosing. FIG. 25 reports the AQP4 intensity across a 60 micron (um) long line drawn across the large descending vessels of the CA1 hippocampus after 10 days of dosing with vehicle or Compound 1.

aged C57BL6 mice = assay: Open Field; assay type: in vivo, mouse
Protocol: The open field test was used to evaluate general locomotor activity and exploratory behavior in a novel environment. It consisted of a square arena (16 in ×16 in). Mice were brought to the experimental room for at least 30 min of acclimation to the experimental room conditions (dim lighting) prior to testing. Mice were placed in the center of the arena, recorded, and tracked within a predefined peripheral and center space using the photobeam activity system automated software (ANY-maze) for 15 min. Total distance traveled, average velocity, and time spent in the peripheral and center zones were analyzed.
as §1

Notch3R169C mice = assay: CADASIL transgenic mouse model Notch3R169C, 4 months dosing (Example 24); assay type: in vivo; conditions: 1 mg/kg PO BID 4 months
Protocol: Notch3^R169C mice (5-month-old) were treated PO BID with either vehicle or Compound 1 (1 mg/kg) for 4 months and littermate WT controls were treated with vehicle for 4 months. Prior to sacrifice, syringes were prepped with 7.5 μL of 1000 U/mL heparin. To increase LTB4 plasma levels, whole blood was stimulated with calcimycin prior to generation of plasma. First, 100 μL of 10 mM calcimycin (Sigma #C7522) in DMSO was diluted into 10 mL of PBS and sonicated for 10 minutes at 37° C. In a 96 well polystyrene plate (Corning 354657), 160 μL of mouse whole blood was collected for each animal and incubated for 15 minutes in a 37° C./5% CO2 (Panasonic MCO-230AICUV-PA). Next, 40 μL of the 100 μM calcimycin working solution was added to each well and incubated again for 30 minutes at 37° C./5% CO2. After incubation, the plates were centrifuged for 10 minutes at 4° C. at 1500 rpm. Plasma was diluted 1:10 and analyzed for LTB4 using LTB4 ELISA Kit (Enzo Life Sciences, ADI-901-068) in duplicate following the included kit protocol. The final readings were collected on a BMG LABTECH CLARIOstar plate reader at 405 nm. Brain tissue was dissected for cortex. One third of the cortex was homogenized in RIPA buffer (EMD Millipore 20-188) using an Omni BeadRuptor 24. Lysates were centrifuged for 10 mins at 10,000 g at 4° C. to collect the supernatant. Protein concentration was determined by BCA (Thermo Fisher 23225) and then diluted in PBS to approximately 10 mg/ml. Samples were sent to Eve Technologies for analysis.

Body weight of aged mice = assay type: in vivo, mouse
Protocol: as §1

## O=C(O)C1CCN(Cc2ccc([C@H]3COc4ccccc4O3)cc2)CC1 [Example 1, 1-{4-[(2S)-2,3-dihydro-1,4-benzodioxin-2-yl]benzyl}piperidine-4-carboxylic acid]
[1]; after 12 days of treatment
  entries into the N and F arms during testing: enter the N and F arms equally
  percent time spent in the novel (N) or familiar (F) arms during testing: significantly more time in the novel arm
[1]; after 18 days of treatment
  percent time spent in the novel (N) or familiar (F) arms during testing: significantly improved
  percentage of entries into the N and F arms: enter the novel arm significantly more than the familiar arm
[1]; after 26 days of treatment
  percentage of entries into the N and F arms: enter the novel arm significantly more than the familiar arm
[2]; 4 weeks of treatment
  AQP4 intensity across large descending vessels of CA1 hippocampus: reduction in the AQP4 intensity
  GFAP percent thresholded area, CA1: significant reduction GFAP percent thresholded area
  total GFAP+ cell number, CA1: did not change
[2]; 10 days of dosing
  AQP4 intensity across large descending vessels of CA1 hippocampus: trending reduction in AQP4 intensity
Aged C57BL6 mice; 4 weeks of dosing
  time spent in periphery (P) or center (C): no difference between time spent in the periphery (P) or center (C)
  total distance traveled in open field: no change in total distance traveled
  velocity in open field: no change in velocity
Aged C57BL6 mice; 10 days of dosing
  time spent in periphery (P) or center (C): no difference between time spent in the periphery (P) or center (C)
  total distance traveled in open field: no change in total distance traveled
  velocity in open field: no change in velocity
Notch3R169C mice
  IL-2 levels in plasma: significantly reduced
  IL-7 levels in brain cortex lysate: significantly reduced
  LTB4 levels in stimulated plasma: significantly reduced
  LTB4 levels in unstimulated plasma: no change in LTB4 levels detected between groups
Body weight of aged mice; 4 weeks of dosing, first cohort
  body weight: no change in body weight
Body weight of aged mice; 4 weeks of dosing, second cohort
  body weight: no change in body weight
Body weight of aged mice; 4 weeks of dosing, third cohort
  body weight: no change in body weight
Body weight of aged mice; 10 days of dosing, first cohort
  body weight: no change in body weight
Body weight of aged mice; 10 days of dosing, second cohort
  body weight: no change in body weight
Body weight of aged mice; 10 days of dosing, third cohort
  body weight: no change in body weight
